According to ChEMBL document CHEMBL3137667, “[Drug-induced liver injury; fourteenth updated edition of the bibliographic database of liver injuries and related drugs]” (Gastroenterol Clin Biol, 2004):

What was measured:
[1] = Highest frequency of moderate liver toxicity observed during clinical trials, expressed as a percentage. [column '% BIOL' in source]; details: human
[2] = Highest frequency of acute liver toxicity observed during clinical trials, expressed as a percentage. [column '% AIGUE' in source]; details: human
[3] = Comments (NB not yet translated). [column 'COMMENTAIRES' in source]; details: human
[4] = Times to onset, minimal and maximal, observed in the indexed observations. [column 'DELAI' in source]; details: human
[5] = human, serum
[6] = human, serum; remark: listed apart in the source
[7] = human
[8] = human; remark: listed apart in the source
[9] = human; remark: listed apart in the source
[10] = human, serum, 4383 h
[11] = human; remark: listed apart in the source
[12] = human; remark: listed apart in the source
[13] = human; remark: listed apart in the source
[14] = human; remark: listed apart in the source
[15] = human; remark: listed apart in the source
[16] = human; remark: listed apart in the source
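Throughout, for Hepatotoxicity (association with vascular disease): count of indexed literature references reporting vascular liver injury in humans, e.g. peliosis hepatitis, hepatic veno-occlusive disease or Budd-Chiari syndrome.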
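Throughout, for Hepatotoxicity (benign tumour): value is a count of indexed literature references citing a benign tumour confirmed by histopathology.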
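Throughout, for Hepatotoxicity (choleostasis): human cholestatic liver injury, shown by histopathology or by peak ALT or AST elevation over alkaline phosphatase ratio below 2, value counts indexed literature reports.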
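Throughout, for Hepatotoxicity (chronic liver disease): chronic liver injury confirmed by histopathology or persistently raised serum aminotransferase activity beyond 6 months, value given as the count of indexed literature references.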
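Throughout, for Hepatotoxicity (cirrhosis): value is a count of indexed literature references reporting cirrhosis confirmed by histopathology.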
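Throughout, for Hepatotoxicity (cytolytic): human cytolytic liver injury, shown by histopathology or by a ratio above 5 of peak ALT or AST elevation to alkaline phosphatase elevation, value counts indexed references.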
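Throughout, for Hepatotoxicity (granulomatous hepatitis): value is a count of indexed literature references reporting granulomatous liver disease confirmed by histopathology.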
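Throughout, for Hepatotoxicity (malignant tumour): malignant tumour confirmed by histopathology, value gives the count of indexed literature references reporting it.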
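Throughout, for Hepatotoxicity (severe hepatitis): human clinical data: severe hepatitis, meaning potentially life-threatening liver failure or clinically observed cases, the value counts how many indexed literature references report it.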
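Throughout, for Hepatotoxicity (steatosis): steatosis confirmed by histopathology, value is the count of indexed references.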

Structure (SMILES) | Hepatotoxicity (moderate) [1] | Hepatotoxicity (acute) [2] | Hepatotoxicity (comment) [3] | Hepatotoxicity (time to onset) [4] | Hepatotoxicity (moderate) [5] | Hepatotoxicity (acute) [6] | Hepatotoxicity (cytolytic) [7] | Hepatotoxicity (choleostasis) [8] | Hepatotoxicity (severe hepatitis) [9] | Hepatotoxicity (chronic liver disease) [10] | Hepatotoxicity (cirrhosis) [11] | Hepatotoxicity (granulomatous hepatitis) [12] | Hepatotoxicity (association with vascular disease) [13] | Hepatotoxicity (steatosis) [14] | Hepatotoxicity (malignant tumour) [15] | Hepatotoxicity (benign tumour) [16] | Hepatotoxicity (moderate) ([1]; Liver) | Hepatotoxicity (acute) ([2]; Liver) | Hepatotoxicity (severe hepatitis) ([9]; Liver)
C[C@]12Cc3c[nH]nc3C[C@@H]1CC[C@@H]1[C@@H]2CC[C@@]2(C)[C@H]1CC[C@]2(C)O [STANOZOLOL] | 26.1% | 0% | ANGIOSARCOME HNF | 1 month - 20 years | 6 | 6 | 2 | 4 | 1 | 0 | 0 | 0 | 0 | 0 | 2 | 3 |  |  | 
CCN1CCCC1CNC(=O)c1cc(S(N)(=O)=O)ccc1OC (stereo not given) [SULPIRIDE] | 4% | 0% | DUCTOPENIE | 1 week - 3 months | 3 | 3 | 0 | 1 | 1 | 0 | 0 | 0 | 0 | 0 | 0 | 0 |  |  | 
Cc1ccc(C(=O)Nc2ccc(S(=O)(=O)O)c3cc(S(=O)(=O)O)cc(S(=O)(=O)O)c23)cc1NC(=O)c1cccc(NC(=O)Nc2cccc(C(=O)Nc3cc(C(=O)Nc4ccc(S(=O)(=O)O)c5cc(S(=O)(=O)O)cc(S(=O)(=O)O)c45)ccc3C)c2)c1 [SURAMIN] | 63% | 6.3% | REACTIVATION_HVB | 1 week - 8 months | 11 | 3 | 1 | 0 | 1 | 0 | 0 | 0 | 0 | 0 | 0 | 0 |  |  | 
CC(C)(C)NCC(O)c1cc(O)cc(O)c1 (stereo not given) [TERBUTALINE] | 0% | 0% | VOIR_BAMBUTEROL | 4 weeks - 8 weeks | 0 | 2 | 2 | 0 | 0 | 0 | 0 | 0 | 0 | 0 | 0 | 0 |  |  | 
C[C@]12CC[C@H]3[C@@H](CCC4=CC(=O)CC[C@@]43C)[C@@H]1CC[C@@H]2O [TESTOSTERONE] | 0% | 0% | ANGIOSARCOME CHOLESTASE_PROLONGEE PELIOSE | 3 months - 11 years | 0 | 3 | 0 | 3 | 1 | 0 | 0 | 0 | 6 | 0 | 2 | 3 |  |  | 
O=C1CCC(N2C(=O)c3ccccc3C2=O)C(=O)N1 (stereo not given) [THALIDOMIDE] | 5.6% | 0% | REACTIVATION_HVC | 5 days - 7 months | 3 | 2 | 2 | 0 | 0 | 0 | 0 | 0 | 0 | 0 | 0 | 0 |  |  | 
CSc1ccc2c(c1)N(CCC1CCCCN1C)c1ccccc1S2 (stereo not given) [THIORIDAZINE] |  |  | RC/CHLORPROMAZINE | 1 week - 1 year | 2 | 5 | 2 | 5 |  | 1 | 0 | 0 | 0 | 0 | 0 | 0 | 0% | 0% | 1
Cc1cc(Br)c(O)c2ncccc12 [TILBROQUINOL] | 0% | 0% | CHOLANGITE | 4 days | 0 | 1 | 0 | 0 | 0 | 0 | 0 | 1 | 0 | 0 | 0 | 0 |  |  | 
Cc1ccc(O)c2ncccc12 [TILIQUINOL] | 0% | 0% | CHOLANGITE | 4 days | 0 | 1 | 0 | 0 | 0 | 0 | 0 | 1 | 0 | 0 | 0 | 0 |  |  | 
CN1CCN(CCCN2c3ccccc3Sc3ccc(C(F)(F)F)cc32)CC1 [TRIFLUOPERAZINE] | 0% | 0% | #CBP | 2 weeks - 8 years | 2 | 5 | 0 | 4 | 0 | 0 | 1 | 0 | 0 | 0 | 0 | 0 |  |  | 
